{"source": "paper PMC9873307", "about": "“Methylone, a rapid acting entactogen with robust anxiolytic and antidepressant-like activity” (Frontiers in Psychiatry, 2023)", "key": {"serotonin uptake": {"test_system": "serotonin uptake", "conditions": "cited from earlier work"}, "male Sprague Dawley rats": {"test_system": "male Sprague Dawley rats", "assay": "Forced swim test (FST)", "type": "in vivo, rat", "conditions": "for percent time spent immobile: 30 min before 5-min test", "description": "Male Sprague Dawley rats (Charles River Laboratories) weighing 180–200 g on arrival, were used for all behavioral studies, which took place at Melior Discovery (Exton, PA, USA). Rats acclimated to their home cages for at least 1 week before testing, were maintained in a controlled environment on a 12 h light/dark cycle, with no more than 2 rats per cage. Animals received ad libitum access to standard rodent chow and water and were assigned randomly to treatment groups. All animal use and procedures were in accordance with established protocols approved by the Melior IACUC committee, Melior Standard Operation Procedures (SOP), and Transcend Therapeutics. Distinct cohorts of animals were used for each experiment/Figure presented in this manuscript.\nMethylone HCl (0.5–30 mg/kg; Cayman Chemical) or Fluoxetine HCl (10 mg/kg; Sigma-Aldrich) were formulated in sterile 0.9% saline vehicle before IP administration. Control animals received saline vehicle. Methylone or saline was administered 30 min prior to FST or OFT testing sessions. Fluoxetine or saline were administered 23.5, 5, and 1 h prior to testing, consistent with previous studies ([19]).\nAll studies were performed and scored by an experimenter blind to treatment group according to standard protocols at Melior Discovery (Exton, PA, USA) and based on published “modified FST” procedures ([20]). Briefly, rats were placed in a circular plexiglass container (29.2 cm diameter, 49.5 cm height) filled with water to a depth of 30 cm so rats could not support themselves by touching the bottom of the tank. Water was maintained at 22–25°C and was changed for every animal. Day 1 (Training) consisted of a 15 min acclimation trial, and Day 2 (Testing, 24 h later) consisted of the 5 min test. A time sampling procedure was employed where animals were observed every 5 s for the duration of the test session (60 counts or 5 min) and scored for immobility (defined as the failure to struggle), swimming (defined as a circular movement around the tank), or climbing (defined as an upward escape behavior). Data are expressed as the percent time spent immobile, swimming, or climbing for the 5-min testing session (e.g., the number of immobility counts divided by 60). Therefore, to extrapolate these values to time spent immobile in minutes, one can multiply the percent time immobile by 5 min."}, "rodents": {"test_system": "rodents", "set-up": "method as in PMID 23839026, PMID 28882561, PMID 22509960, PMID 22922498", "conditions": "cited from earlier work"}}, "note": "pIC50: −log10 of the molar value.", "data": [{"smiles": "CNC(C)C(=O)c1ccc2c(c1)OCO2", "note": "(stereo not drawn) [methylone, 3,4-methylenedioxy-N-methylcathinone]", "values": [{"measurement": "lower potency for inhibition of serotonin uptake vs MDMA", "setting": "serotonin uptake; compared with MDMA", "value": "3–4 ×"}, {"measurement": "less potent inhibitor of serotonin uptake than MDMA", "setting": "serotonin uptake; in vitro, compared with MDMA", "value": "3–4 fold"}, {"measurement": "pIC50", "setting": "serotonin uptake; in vitro, read-out: IC50 for inhibition of serotonin uptake", "value": 5.24}, {"measurement": "reduced immobility relative to Vehicle controls", "setting": "male Sprague Dawley rats; after a single dose of methylone", "value": "78–98%"}, {"measurement": "duration of antidepressant-like effect", "setting": "male Sprague Dawley rats; after a single dose of methylone 15 mg/kg IP", "value": "at least 72 h"}, {"measurement": "percent time spent immobile", "setting": "male Sprague Dawley rats; methylone 5 mg/kg IP, Vehicle 63.9 ± 2.7%", "value": "31.9 ± 4.7", "unit": "%"}, {"measurement": "climbing vs vehicle on retest", "setting": "male Sprague Dawley rats; methylone 15 mg/kg IP once, 30 min, 24, 72 h, Figure 3D", "value": "small but significant effect of methylone on climbing was observed at 30 min only"}, {"measurement": "swimming vs vehicle on retest", "setting": "male Sprague Dawley rats; methylone 15 mg/kg IP once, 30 min, 24, 72 h, Figure 3F", "value": "significantly increasing swimming at all three time points tested"}, {"measurement": "immobility vs vehicle on retest", "setting": "male Sprague Dawley rats; methylone 15 mg/kg IP once, tested 30 min, 24 and 72 h, Figure 3B", "value": "reducing immobility significantly at all-time points"}, {"measurement": "climbing behavior vs controls", "setting": "male Sprague Dawley rats; methylone 0.5–30 mg/kg IP dose response, 30 min before, Figure 1D", "value": "increased only by low to mid doses of methylone (5–10 mg/kg)"}, {"measurement": "percent time spent immobile", "setting": "male Sprague Dawley rats; methylone 10–15 mg/kg IP, Vehicle 63.9 ± 2.7%", "value": "4.2 ± 1.3", "unit": "%"}, {"measurement": "immobility at highest doses", "setting": "male Sprague Dawley rats; methylone 20–30 mg/kg, not statistically significant", "value": "trend toward less reduction in immobility"}, {"measurement": "climbing compared to vehicle", "setting": "male Sprague Dawley rats; methylone alone 5 mg/kg IP 30 min before, Figure 6C", "value": "significantly increased climbing"}, {"measurement": "% time immobile", "setting": "male Sprague Dawley rats; methylone alone, 15 mg/kg, Figure 1B, Vehicle 63.9 ± 2.7%", "value": "4.2 ± 1.8", "unit": "%"}, {"measurement": "dose of first significant effect on immobility", "setting": "male Sprague Dawley rats; methylone dose response", "value": 5, "unit": "mg/kg"}, {"measurement": "dose of maximal effect on immobility", "setting": "male Sprague Dawley rats; methylone dose response", "value": 10, "unit": "mg/kg"}, {"measurement": "swimming behavior vs controls", "setting": "male Sprague Dawley rats; methylone mid to high doses, 30 min before, Figure 1F", "value": "significantly increased"}, {"measurement": "change in immobility vs vehicle control", "setting": "male Sprague Dawley rats; methylone single low dose 5 mg/kg IP, 30 min before", "value": "~50", "unit": "%"}, {"measurement": "onset of effect", "setting": "male Sprague Dawley rats; single dose of methylone", "value": "≤ 30", "unit": "min"}, {"measurement": "reduction of immobility vs. controls", "setting": "male Sprague Dawley rats; single dose of methylone (5–30 mg/kg) 30 min prior to testing", "value": "~95", "unit": "%"}, {"measurement": "locomotor activity", "setting": "rodents", "value": "increase locomotor activity"}]}]}
